Reference: the supplement of paper PMC4862054

Tests used:
[1] = test system: HCC1937; assay: normalised viability (% of control), CellTiter-Blue; higher = more viable cells (about 100 = DMSO control); conditions: 9.9 nM; incubation time: 72 h
Experimental: (§1)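 DSRT, CellTiter-Blue viability, 72 h incubation. Signal is normalised to DMSO and benzethonium chloride controls. Value is the normalised response at dose 3.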

[2] = test system: Hs578T; assay: as above; conditions: 9.9 nM; incubation time: 72 h
Experimental: as §1

[3] = test system: MDA-MB-436; assay: as above; conditions: 9.9 nM; incubation time: 72 h
Experimental: as §1

[4] = test system: DU-4475; assay: as above; conditions: 0.99 nM; incubation time: 72 h
Experimental: as §1

[5] = test system: CAL-85-1; assay: as above; conditions: 0.99 nM; incubation time: 72 h
Experimental: as §1

[6] = test system: MDA-MB-468; assay: as above; conditions: 9.9 nM; incubation time: 72 h
Experimental: as §1

[7] = test system: BT-549; assay: as above; conditions: 9.9 nM; incubation time: 72 h
Experimental: as §1

[8] = test system: CAL-148; assay: as above; conditions: 0.99 nM; incubation time: 72 h
Experimental: as §1

[9] = test system: MDA-MB-231; assay: as above; conditions: 9.9 nM; incubation time: 72 h
Experimental: as §1

[10] = test system: SK-BR-3; assay: as above; conditions: 9.9 nM; incubation time: 72 h
Experimental: as §1

[11] = test system: CAL-120; assay: as above; conditions: 9.9 nM; incubation time: 72 h
Experimental: as §1

[12] = test system: CAL-51; assay: as above; conditions: 0.99 nM; incubation time: 72 h
Experimental: as §1

[13] = test system: BT-474; assay: as above; conditions: 9.9 nM; incubation time: 72 h
Experimental: as §1

[14] = test system: HDQ-P1; assay: as above; conditions: 0.99 nM; incubation time: 72 h
Experimental: as §1

[15] = test system: HCC1143; assay: as above; conditions: 9.9 nM; incubation time: 72 h
Experimental: as §1

[16] = test system: MFM-223; assay: as above; conditions: 9.9 nM; incubation time: 72 h
Experimental: as §1

[17] = test system: MDA-MB-453; assay: as above; conditions: 0.99 nM; incubation time: 72 h
Experimental: as §1

[18] = test system: HCC1599; assay: as above; conditions: 9.9 nM; incubation time: 72 h
Experimental: as §1

[19] = test system: HCC1937; assay: normalised response (% of control), CellTiter-Glo; higher = more viable cells (100 = DMSO, 0 = benzethonium chloride kill control); conditions: incubation time: 72 h
Method in brief: (§2)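 After 72 h with compound in 384-well plates, breast cancer cell lines seeded as 20 µl suspension were read for CellTox Green fluorescence at 485/520 nm. CellTiter-Glo luminescence was then read after 10 min at room temperature. Compound was present at 5 concentrations in 10-fold steps over a 10,000-fold range set per compound, and plates were normalised to 0.1 % DMSO (100) and a positive kill control (0). Values are normalised signals, each at a single concentration.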

[20] = test system: Hs578T; assay: as above; conditions: incubation time: 72 h
Method in brief: as §2

[21] = test system: MDA-MB-436; assay: as above; conditions: incubation time: 72 h
Method in brief: as §2

[22] = test system: BT-549; assay: as above; conditions: incubation time: 72 h
Method in brief: as §2

[23] = test system: CAL-148; assay: as above; conditions: incubation time: 72 h
Method in brief: as §2

[24] = test system: SK-BR-3; assay: as above; conditions: incubation time: 72 h
Method in brief: as §2

[25] = test system: CAL-120; assay: as above; conditions: incubation time: 72 h
Method in brief: as §2

[26] = test system: CAL-51; assay: as above; conditions: incubation time: 72 h
Method in brief: as §2

[27] = test system: BT-474; assay: as above; conditions: incubation time: 72 h
Method in brief: as §2

[28] = test system: HCC1143; assay: as above; conditions: incubation time: 72 h
Method in brief: as §2

[29] = test system: MFM-223; assay: as above; conditions: incubation time: 72 h
Method in brief: as §2

[30] = test system: MDA-MB-453; assay: as above; conditions: incubation time: 72 h
Method in brief: as §2

Row | Compound | normalised viability [1] | normalised viability [2] | normalised viability [3] | normalised viability [4] | normalised viability [5] | normalised viability [6] | normalised viability [7] | normalised viability [8] | normalised viability [9] | normalised viability [10] | normalised viability [11] | normalised viability [12] | normalised viability [13] | normalised viability [14] | normalised viability [15] | normalised viability [16] | normalised viability [17] | normalised viability [18] | normalised response [19] | normalised response [20] | normalised response [21] | normalised response [22] | normalised response [23] | normalised response [24] | normalised response [25] | normalised response [26] | normalised response [27] | normalised response [28] | normalised response [29] | normalised response [30]
1 | C[C@]12CC[C@@H]3c4ccc(OC(=O)N(CCCl)CCCl)cc4CC[C@H]3[C@@H]1CC[C@@H]2O [Estramustine] | 101% | 102% | 92.1% | 85.1% | 111% | 108% | 79.8% | 113% | 93.8% | 106% | 102% | 88.3% | 113% | 109% | 105% | 95.9% | 100% | 91.4% | – | – | – | – | – | – | – | – | – | – | – | –
2 | CC1(C)CNc2cc(NC(=O)c3cccnc3NCc3ccncc3)ccc21 [Motesanib] (10000 nM) | – | – | – | – | – | – | – | – | – | – | – | – | – | – | – | – | – | – | 97.8% | 91.8% | 95% | 97% | 86.9% | 86.3% | 103% | 122% | 90.9% | 94.8% | 88.1% | 91.6%
3 | CC(=O)O[C@@]12CO[C@@H]1C[C@H](O)[C@@]1(C)C(=O)[C@H](O)C3=C(C)[C@@H](OC(=O)[C@H](O)[C@@H](NC(=O)OC(C)(C)C)c4ccccc4)C[C@@](O)([C@@H](OC(=O)c4ccccc4)[C@H]21)C3(C)C [Docetaxel] (1000 nM) | – | – | – | – | – | – | – | – | – | – | – | – | – | – | – | – | – | – | 73.8% | 13.6% | 32.8% | 17.1% | 45.5% | 10.7% | 55.3% | 32.9% | 39.3% | 38.3% | 48.9% | 44.4%
4 | O=C1CN2Cc3c(ccc(Cl)c3Cl)N=C2N1 [Anagrelide] (10000 nM) | – | – | – | – | – | – | – | – | – | – | – | – | – | – | – | – | – | – | 97.9% | 80.5% | 96% | 97.3% | 96.4% | 102% | 96.5% | 88% | 88% | 93% | 99.6% | 100%
5 | Nc1nc2[nH]cnc2c(=S)[nH]1 [Thioguanine] (10000 nM) | – | – | – | – | – | – | – | – | – | – | – | – | – | – | – | – | – | – | 35.8% | 33.2% | 31.3% | 48.5% | 68.2% | 62.1% | 37% | 28.6% | 40.8% | 66.7% | 72.9% | 79%
6 | CC[C@@H]1C(=O)OC[C@@H]1Cc1cncn1C [Pilocarpine] (40000 nM) | – | – | – | – | – | – | – | – | – | – | – | – | – | – | – | – | – | – | 96.7% | 99% | 89.7% | 102% | 88.6% | 102% | 91.2% | 134% | 91.6% | 89.6% | 97.6% | 92.7%
7 | Oc1ncnc2[nH]ncc12 [Allopurinol] (10000 nM) | – | – | – | – | – | – | – | – | – | – | – | – | – | – | – | – | – | – | 102% | 102% | 101% | 102% | 106% | 114% | 99.1% | 131% | 97.9% | 104% | 103% | 111%
8 | Nc1ncn([C@@H]2O[C@H](CO)[C@@H](O)[C@H]2O)c(=O)n1 [Azacitidine] (10000 nM) | – | – | – | – | – | – | – | – | – | – | – | – | – | – | – | – | – | – | 69.3% | 58.9% | 54.7% | 45% | 87.7% | 92.4% | 61.6% | 91.2% | 71.4% | 75% | 53.8% | 102%
9 | Cn1cnc2c(F)c(Nc3ccc(Br)cc3Cl)c(C(=O)NOCCO)cc21 [Selumetinib] (10000 nM) | – | – | – | – | – | – | – | – | – | – | – | – | – | – | – | – | – | – | 76.3% | 76.4% | 85.4% | 84.1% | 76.1% | 92% | 66.8% | 106% | 55.5% | 76.6% | 67.9% | 93.8%
10 | COc1cc2c(cc1O)CC[C@@H]1[C@@H]2CC[C@]2(C)[C@@H](O)CC[C@@H]12 [2-methoxyestradiol] (10000 nM) | – | – | – | – | – | – | – | – | – | – | – | – | – | – | – | – | – | – | 68.5% | 25.4% | 44.7% | 48.8% | 39.8% | 17.1% | 62.6% | 31.1% | 58.1% | 49.3% | 54.4% | 59.7%
11 | Cn1cc(C2=Nc3cc(NC(=O)C(N)C4CCCCC4)cc4c3C2=CNNC4=O)cn1 (stereo not given) (10000 nM) | – | – | – | – | – | – | – | – | – | – | – | – | – | – | – | – | – | – | 21.2% | 26.6% | 22.6% | 12.1% | 53.1% | 8.5% | 42.8% | 25.2% | 38.3% | 14.7% | 50.4% | 46.6%
12 | CC(C)(C)c1cnc(CSc2cnc(NC(=O)C3CCNCC3)s2)o1 [SNS-032] (10000 nM) | – | – | – | – | – | – | – | – | – | – | – | – | – | – | – | – | – | – | 38.6% | 8.34% | 18.2% | 5.15% | 77.1% | 4.26% | 43.3% | 16.7% | 31.8% | 15.1% | 32% | 56.4%
